Source: publication PMC11195807, “Development of a multi-targeted chemotherapeutic approach based on G-quadruplex stabilisation and carbonic anhydrase inhibition” (Journal of Enzyme Inhibition and Medicinal Chemistry, 2024)
Structures can show the parent of a compound that is named as a salt.

Test system: not given
Test: not given
Conditions: not given
`COc1ccc2cc3[n+](cc2c1OCCCn1cc(COc2ccc4ccc(=O)oc4c2)nn1)CCc1cc2c(cc1-3)OCO2` (as salt: phosphate) [Compound 34, 10-Methoxy-9–(3-(4-(((2-oxo-2H-chromen-7-yl)oxy)methyl)-1H-1,2,3-triazol-1-yl)propoxy)-5,6-dihydro-[1,3]dioxolo[4,5-g]isoquinolino[3,2-a]isoquinolin-7-ium hexafluorophosphate] showed a melting point of 140 °C.
`COc1ccc2cc3[n+](cc2c1OCCCn1cc(CCOc2ccc4ccc(=O)oc4c2)nn1)CCc1cc2c(cc1-3)OCO2` (as salt: phosphate) [Compound 35, 10-Methoxy-9–(3-(4–(2-((2-oxo-2H-chromen-7-yl)oxy)ethyl)-1H-1,2,3-triazol-1-yl)propoxy)-5,6-dihydro-[1,3]dioxolo[4,5-g]isoquinolino[3,2-a]isoquinolin-7-ium hexafluorophosphate] showed a melting point of 130 to 131 °C.
For `COc1ccc2cc3[n+](cc2c1OCCCCn1cc(CCOc2ccc4ccc(=O)oc4c2)nn1)CCc1cc2c(cc1-3)OCO2` (as salt: phosphate) [Compound 38, 10-Methoxy-9–(4-(4–(2-((2-oxo-2H-chromen-7-yl)oxy)ethyl)-1H-1,2,3-triazol-1-yl)butoxy)-5,6-dihydro-[1,3]dioxolo[4,5-g]isoquinolino[3,2-a]isoquinolin-7-ium hexafluorophosphate], the melting point was 185 to 186 °C.
`COc1ccc2cc3[n+](cc2c1OCc1cn(-c2cccc(S(N)(=O)=O)c2)nn1)CCc1cc2c(cc1-3)OCO2` (as salt: phosphate) [Compound 40, 10-Methoxy-9-((1–(3-sulfamoylphenyl)-1H-1,2,3-triazol-4-yl)methoxy)-5,6-dihydro-[1,3]dioxolo[4,5-g]isoquinolino[3,2-a]isoquinolin-7-ium hexafluorophosphate] gave a melting point of 195 to 198 °C.
`COc1ccc2cc3[n+](cc2c1OCc1cn(CCCOc2ccc4ccc(=O)oc4c2)nn1)CCc1cc2c(cc1-3)OCO2` (as salt: phosphate) [Compound 42, 10-Methoxy-9-((1–(3-((2-oxo-2H-chromen-7-yl)oxy)propyl)-1H-1,2,3-triazol-4-yl)methoxy)-5,6-dihydro-[1,3]dioxolo[4,5-g]isoquinolino[3,2-a]isoquinolin-7-ium hexafluorophosphate] gave a melting point of 117 to 118 °C.
Compound `COc1ccc2cc3[n+](cc2c1OCc1cn(CCCCOc2ccc4ccc(=O)oc4c2)nn1)CCc1cc2c(cc1-3)OCO2` (as salt: phosphate) [Compound 43, 10-Methoxy-9-((1–(4-((2-oxo-2H-chromen-7-yl)oxy)butyl)-1H-1,2,3-triazol-4-yl)methoxy)-5,6-dihydro-[1,3]dioxolo[4,5-g]isoquinolino[3,2-a]isoquinolin-7-ium hexafluorophosphate] has a melting point of 124 to 125 °C.
`COc1ccc2cc3[n+](cc2c1OCc1cn(CCCCCOc2ccc4ccc(=O)oc4c2)nn1)CCc1cc2c(cc1-3)OCO2` (as salt: phosphate) [Compound 44, 10-Methoxy-9-((1–(5-((2-oxo-2H-chromen-7-yl)oxy)pentyl)-1H-1,2,3-triazol-4-yl)methoxy)-5,6-dihydro-[1,3]dioxolo[4,5-g]isoquinolino[3,2-a]isoquinolin-7-ium hexafluorophosphate] showed a melting point of 171 to 173 °C.
Compound `COc1ccc2cc3[n+](cc2c1OCc1cn(-c2ccc4c(C)cc(=O)oc4c2)nn1)CCc1cc2c(cc1-3)OCO2` (as salt: phosphate) [Compound 45, 10-Methoxy-9-((1–(4-methyl-2-oxo-2H-chromen-7-yl)-1H-1,2,3-triazol-4-yl)methoxy)-5,6-dihydro-[1,3]dioxolo[4,5-g]isoquinolino[3,2-a]isoquinolin-7-ium hexafluorophosphate] has a melting point of 280 to 282 °C.

Test system: GQ structures
Test: BG4 immunofluorescence of GQ foci, HeLa cells in normoxia
Format: cell-based
Conditions: 24 h, 35.0 µM S-4,0, 40.0 µM C-4,2, 37.5 µM C-5,2, 2 µM RHPS4, over DMSO
Text: After measuring the viability of HeLa cells upon treatment with the newly synthesised MTDLs mentioned above, we probed the capability of the three most cytotoxic ones (S-4,0, C-4,2, and C-5,2) to affect the formation of GQ structures by immunofluorescence (IF) microscopy, using the BG4 antibody that selectively recognises the GQ structures. As it can be noticed in Figure 6, the fluorescence intensity of the total number of GQ foci increased by around 30% after treatment with both the coumarin derivative C-4,2 and the reference GQ binder RHPS4, whereas it was not affected by S-4,0 and C-5,2. […] On the contrary, the levels of GQ structures were influenced neither by the treatment with the sulphonamide S-4,0 nor by the coumarin C-5,2, despite their ability to thermally stabilise some GQ-forming sequences in vitro.
Figure 6. (A) Representative fields showing G4 foci formation detected by immunofluorescence in HeLa cells treated for 24 h with 35.0 µM S-4,0, 40.0 µM C-4,2, and 37.5 µM C-5,2 or an equivalent amount of vehicle (0.1% DMSO). As a positive control, cells were treated with 2 µM RHPS4 (a well-established GQ ligand)[68] for 24 h. Scale bar: 10 µm. Upper panels: the merged channels of BG4-stained GQ structures (magenta) and Hoechst-counterstained nuclei (grey) are reported. Lower panels: enlargements from the pictures in the upper panels. (B) Quantitative analysis of the fluorescence intensity of the total number of GQ foci. An average of 50 cells were screened for each condition and the results are expressed as a fold change of fluorescence intensity (anti-GQ signal) over the negative control (DMSO). Histograms show the mean ± SD of three independent experiments. The statistical significance was calculated using a one-way ANOVA test on GraphPad Prism 8.0.2 (ns: not significant, **: p < 0.01).
For the IF experiments in the presence of normal oxygen levels, HeLa cells were seeded on sterile coverslips, in a 24-well plate, at a density of 90,000 cells per well, and incubated overnight. Then, cells were treated with a sublethal concentration of each investigated MTDL or an equivalent amount of vehicle (0.1% DMSO), for 24 h. As positive control, cells were exposed for 24 h to 2 µM RHPS4. As regards the IF experiments under hypoxic conditions, HeLa were seeded on sterile coverslips, in a 24-well plate, at a density of 50,000 cells per well, and incubated overnight. […] From there, the cellular and nuclear foci were segmented, and their number or fluorescence intensity was quantified by using the Image Analysis package of ZEISS ZEN 3.1 software.
In the case of `COS(=O)(=O)[O-].Cc1cc2c3c([n+](C)c4ccc(F)cc4c3c1)-c1cc(F)ccc1N2C` [RHPS4, reference compound], the “increase of fluorescence intensity of the total number of GQ foci” value is reported as “around 30%”.
